Assay results as given in ChEMBL document CHEMBL1201862, “PubChem BioAssay data set” (2004).
Calls of active or inactive are those of the source.

Columns and labels:
[1] = target: T1, Histone-lysine N-methyltransferase NSD2 (Homo sapiens, UniProt O96028); assay type: biochemical
T1 sequence (O96028 whole entry): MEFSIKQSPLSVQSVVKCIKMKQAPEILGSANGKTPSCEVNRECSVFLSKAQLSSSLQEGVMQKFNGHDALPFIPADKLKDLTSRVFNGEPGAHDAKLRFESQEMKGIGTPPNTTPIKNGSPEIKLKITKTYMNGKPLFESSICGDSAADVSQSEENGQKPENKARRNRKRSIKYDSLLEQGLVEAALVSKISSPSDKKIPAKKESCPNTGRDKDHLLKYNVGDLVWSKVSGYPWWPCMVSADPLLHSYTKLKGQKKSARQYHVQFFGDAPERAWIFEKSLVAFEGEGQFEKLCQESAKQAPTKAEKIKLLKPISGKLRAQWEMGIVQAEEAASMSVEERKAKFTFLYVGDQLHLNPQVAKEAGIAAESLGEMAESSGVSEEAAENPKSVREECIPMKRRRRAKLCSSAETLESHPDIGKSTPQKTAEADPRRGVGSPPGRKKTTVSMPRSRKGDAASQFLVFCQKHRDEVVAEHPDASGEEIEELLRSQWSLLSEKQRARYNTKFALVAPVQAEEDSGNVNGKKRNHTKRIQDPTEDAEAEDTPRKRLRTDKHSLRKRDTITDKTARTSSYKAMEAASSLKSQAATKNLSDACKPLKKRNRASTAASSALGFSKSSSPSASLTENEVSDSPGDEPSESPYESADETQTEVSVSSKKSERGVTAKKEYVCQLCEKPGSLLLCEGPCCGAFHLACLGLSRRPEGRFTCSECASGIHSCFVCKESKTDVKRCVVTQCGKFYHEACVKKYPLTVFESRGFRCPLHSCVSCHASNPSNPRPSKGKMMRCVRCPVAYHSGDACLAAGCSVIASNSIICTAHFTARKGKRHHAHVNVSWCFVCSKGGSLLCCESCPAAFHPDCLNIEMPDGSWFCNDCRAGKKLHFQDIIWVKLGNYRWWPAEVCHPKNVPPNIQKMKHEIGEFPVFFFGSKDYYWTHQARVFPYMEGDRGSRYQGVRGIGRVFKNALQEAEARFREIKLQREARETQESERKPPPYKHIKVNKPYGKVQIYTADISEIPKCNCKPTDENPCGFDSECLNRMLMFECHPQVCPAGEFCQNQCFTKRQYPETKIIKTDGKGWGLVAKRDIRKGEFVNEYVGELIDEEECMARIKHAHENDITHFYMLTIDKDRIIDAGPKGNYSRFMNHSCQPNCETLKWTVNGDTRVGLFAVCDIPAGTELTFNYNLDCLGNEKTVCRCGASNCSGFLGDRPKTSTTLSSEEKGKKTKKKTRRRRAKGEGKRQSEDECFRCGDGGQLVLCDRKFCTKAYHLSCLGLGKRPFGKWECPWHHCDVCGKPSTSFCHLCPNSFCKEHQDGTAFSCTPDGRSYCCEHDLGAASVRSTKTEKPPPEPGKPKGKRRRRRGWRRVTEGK

HeLa = experiment: viability loss in HeLa cells – cell-based, 24 h, cherry-picked samples, cytotoxicity control, dose response (AID 504726); assay type: functional; conditions: Homo sapiens;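 further: potency for cytotoxicity as loss of luminescence signal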
ORF 73 = target: T2, ORF 73 (Human herpesvirus 8, UniProt O40947); experiment: KSHV LANA DNA-binding disruption – biochemical, fluorescence polarization, cherry-picked samples, dose response (AID 504725); set-up: species or system Human gammaherpesvirus 8;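 further: fluorescence polarization of a labeled DNA duplex reporting LANA DNA binding; potency is for inhibitors that block LANA binding to the DNA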
T2 sequence (O40947 whole entry): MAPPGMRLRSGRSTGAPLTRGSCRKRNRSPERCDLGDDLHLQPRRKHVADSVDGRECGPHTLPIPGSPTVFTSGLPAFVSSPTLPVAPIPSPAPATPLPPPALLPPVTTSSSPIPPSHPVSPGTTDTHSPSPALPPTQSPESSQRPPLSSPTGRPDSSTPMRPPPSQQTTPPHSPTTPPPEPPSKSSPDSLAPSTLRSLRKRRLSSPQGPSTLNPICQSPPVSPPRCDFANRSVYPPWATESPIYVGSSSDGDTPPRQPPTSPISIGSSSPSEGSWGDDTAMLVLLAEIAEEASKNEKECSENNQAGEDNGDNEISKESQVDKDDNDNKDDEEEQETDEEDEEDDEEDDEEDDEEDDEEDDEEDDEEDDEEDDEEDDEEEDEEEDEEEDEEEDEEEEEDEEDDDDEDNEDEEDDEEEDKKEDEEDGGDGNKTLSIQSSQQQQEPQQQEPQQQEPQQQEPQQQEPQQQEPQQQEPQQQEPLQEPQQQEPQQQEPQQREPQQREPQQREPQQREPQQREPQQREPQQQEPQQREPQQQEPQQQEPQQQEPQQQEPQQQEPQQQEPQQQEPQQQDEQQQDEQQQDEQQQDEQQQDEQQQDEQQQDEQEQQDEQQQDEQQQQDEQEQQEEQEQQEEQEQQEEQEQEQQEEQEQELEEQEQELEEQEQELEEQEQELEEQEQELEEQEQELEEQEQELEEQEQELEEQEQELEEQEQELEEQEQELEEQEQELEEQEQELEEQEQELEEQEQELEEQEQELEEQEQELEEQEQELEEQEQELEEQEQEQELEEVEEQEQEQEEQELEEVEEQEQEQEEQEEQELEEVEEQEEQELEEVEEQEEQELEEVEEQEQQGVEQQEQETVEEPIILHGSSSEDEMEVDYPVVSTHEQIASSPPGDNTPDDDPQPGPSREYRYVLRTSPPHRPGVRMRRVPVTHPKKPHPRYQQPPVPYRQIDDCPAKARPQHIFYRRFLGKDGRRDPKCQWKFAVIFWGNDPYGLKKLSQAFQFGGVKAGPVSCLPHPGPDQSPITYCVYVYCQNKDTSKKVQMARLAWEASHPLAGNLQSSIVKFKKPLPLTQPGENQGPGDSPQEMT

Nonstructural protein 1 = Nonstructural protein 1 (Influenza A virus, UniProt Q194T2); assay type: functional, Influenza A virus (A/California/07/2009(H1N1))
Caspase-6 = target: T3, Caspase-6 (Homo sapiens, UniProt P55212); experiment: inhibition of CASP6 peptide cleavage – biochemical, VEID-R110 fluorescence, cherry-pick, dose response (AID 720632)
T3 sequence (P55212 whole entry): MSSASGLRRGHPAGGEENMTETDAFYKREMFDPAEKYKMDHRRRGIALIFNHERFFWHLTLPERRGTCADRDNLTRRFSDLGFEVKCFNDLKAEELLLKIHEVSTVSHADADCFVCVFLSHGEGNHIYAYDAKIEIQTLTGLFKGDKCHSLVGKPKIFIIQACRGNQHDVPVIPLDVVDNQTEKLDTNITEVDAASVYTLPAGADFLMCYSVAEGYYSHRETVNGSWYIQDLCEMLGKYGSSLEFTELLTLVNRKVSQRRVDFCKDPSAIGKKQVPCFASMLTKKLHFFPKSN

[2] = target: T4, Rac GTPase-activating protein 1 (Homo sapiens, UniProt Q9H0H5); experiment: blockers of MgcRacGAP-driven Rac1 GTP hydrolysis – biochemical, ADP Hunter fluorescence, primary and confirmatory, confirmation (AID 624330); assay type: functional
T4 sequence (Q9H0H5 whole entry): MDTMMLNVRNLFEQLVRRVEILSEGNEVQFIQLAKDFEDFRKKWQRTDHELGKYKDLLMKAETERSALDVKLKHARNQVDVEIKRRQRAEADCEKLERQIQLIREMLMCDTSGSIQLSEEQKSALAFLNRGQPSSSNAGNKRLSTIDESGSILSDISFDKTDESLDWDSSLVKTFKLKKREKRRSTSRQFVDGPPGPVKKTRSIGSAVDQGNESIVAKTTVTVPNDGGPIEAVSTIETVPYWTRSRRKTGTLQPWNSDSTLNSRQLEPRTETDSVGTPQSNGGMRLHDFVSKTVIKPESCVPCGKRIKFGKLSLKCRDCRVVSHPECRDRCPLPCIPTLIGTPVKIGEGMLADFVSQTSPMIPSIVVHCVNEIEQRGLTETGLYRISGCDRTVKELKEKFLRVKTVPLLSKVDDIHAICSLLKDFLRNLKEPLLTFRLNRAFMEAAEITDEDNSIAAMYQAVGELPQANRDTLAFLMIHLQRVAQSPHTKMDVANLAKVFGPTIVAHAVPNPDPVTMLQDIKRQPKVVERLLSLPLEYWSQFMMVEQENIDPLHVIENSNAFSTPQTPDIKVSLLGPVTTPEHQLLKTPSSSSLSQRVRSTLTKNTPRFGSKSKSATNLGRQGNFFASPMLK

[3] = target: Matrix metalloproteinase-14 (Homo sapiens, UniProt P50281); experiment: Dose Response confirmation of uHTS hits for a small molecule inhibitors of MT1-MMP activation in a fluorescence assay set 2.; assay type: functional
[4] = viability loss in HeLa cells – cytotoxicity control for MgcRacGAP inhibitor project, dose response (AID 624300); assay type: functional
[5] = target: Metabotropic glutamate receptor 3 (Rattus norvegicus, UniProt P31422); experiment: inhibition of rat mGlu3 glutamate signaling – HEK/GIRK cells, thallium flux, dose response (AID 651839); assay type: functional
[6] = Mycobacterium tuberculosis BioA enzyme inhibitor Measured in Biochemical System Using Plate Reader - 2163-02_Inhibitor_Dose_DryPowder_Activity.
[7] = viability of HCT116 lacking mutant beta-catenin – cell-based, human colon tumor, dose response (AID 1045); assay type: functional;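 further: HCT116 colon tumor cells with beta catenin knocked out; cells exposed to compound for 60 hours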
[8] = viability of PTEN-deleted HCT116 cells – cell-based, HCT116 PTEN knockout, dose response (AID 1047); assay type: functional;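 further: HCT116 colon tumor cells with PTEN knocked out; cells exposed to compound for 60 hours before readout; potency for loss of cell viability measured by luminescence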
[9] = general mammalian cell viability loss – activator set, cherry-pick, cytotoxicity control for miR-122 modulator project, dose response (AID 720690); assay type: functional, cell-based;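 further: HEK293T human cells scored for general mammalian cytotoxicity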
[10] = loss of viability in HepG2 cells – cell-based, CellTiter-Glo, cherry-picked, cytotoxicity control for Shn3 inhibitor project, dose response (AID 624134); assay type: functional
INS1 = experiment: INS-1E survival protection against cytokine death – cell-based, luminescence, retest, dose response (AID 449756); assay type: functional; conditions: Rattus norvegicus;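 further: cell death triggered by IL-1 beta plus TNF-alpha plus IFN-gamma mixture; protective hits raise ATP signal compared with cytokine alone wells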
[11] = reduction of Shn3 3'UTR-driven luciferase in osteoblasts – cell-based, Clone20 osteoblasts, firefly luciferase, cherry-picked, dose response (AID 624132); assay type: functional;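 further: firefly luciferase luminescence from reporter carrying the Shn3 3'UTR in osteoblasts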
[12] = general mammalian cell viability loss – inhibitor set, cherry-pick, set 2, cytotoxicity control for miR-122 modulator project, dose response (AID 720697); assay type: functional, cell-based
[13] = target: T5, Ubiquitin-conjugating enzyme E2 N (Homo sapiens, UniProt P61088); assay type: functional;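 further: Dose-response confirmation in a TR-FRET assay detecting UBC13-driven polyubiquitin chain formation, inhibition measured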
T5 sequence (P61088 whole entry): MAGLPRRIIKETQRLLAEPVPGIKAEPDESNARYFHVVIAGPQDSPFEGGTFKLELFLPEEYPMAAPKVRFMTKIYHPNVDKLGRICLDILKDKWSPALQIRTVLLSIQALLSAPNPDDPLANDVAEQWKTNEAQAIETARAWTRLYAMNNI

[14] = Shn3 3'UTR reporter signal decrease – cell-based, Clone20 osteoblasts, firefly luciferase, cherry-pick, set 2, Schnurri-3 inhibitor project, dose response (AID 720490); assay type: functional;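 further: actives lower the luminescence signal as inhibitors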
[15] = non-specific 3'UTR reporter inhibition in Clone20-Shn3RL – cell-based, Renilla luciferase, cherry-picked, counter-screen for Shn3 inhibitor project, dose response (AID 624133); assay type: functional
[16] = EF1alpha-driven Renilla reporter with control 3'UTR suppression – Clone20-Shn3RL cells, dual-Glo, cherry-pick, set 2, counter-screen for Shn3 3'UTR targeting project, dose response (AID 720724); assay type: functional, cell-based; conditions: Dual-Go Shn3RL

Sequence of Nonstructural protein 1 (Q194T2 whole entry): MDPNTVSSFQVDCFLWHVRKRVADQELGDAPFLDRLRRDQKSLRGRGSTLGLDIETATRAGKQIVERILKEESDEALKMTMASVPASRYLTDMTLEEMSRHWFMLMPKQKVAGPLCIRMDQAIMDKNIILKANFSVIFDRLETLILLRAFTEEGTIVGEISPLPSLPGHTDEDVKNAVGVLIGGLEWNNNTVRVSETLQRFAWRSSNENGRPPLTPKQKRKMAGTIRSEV
Sequence of Metabotropic glutamate receptor 3 (P31422 whole entry): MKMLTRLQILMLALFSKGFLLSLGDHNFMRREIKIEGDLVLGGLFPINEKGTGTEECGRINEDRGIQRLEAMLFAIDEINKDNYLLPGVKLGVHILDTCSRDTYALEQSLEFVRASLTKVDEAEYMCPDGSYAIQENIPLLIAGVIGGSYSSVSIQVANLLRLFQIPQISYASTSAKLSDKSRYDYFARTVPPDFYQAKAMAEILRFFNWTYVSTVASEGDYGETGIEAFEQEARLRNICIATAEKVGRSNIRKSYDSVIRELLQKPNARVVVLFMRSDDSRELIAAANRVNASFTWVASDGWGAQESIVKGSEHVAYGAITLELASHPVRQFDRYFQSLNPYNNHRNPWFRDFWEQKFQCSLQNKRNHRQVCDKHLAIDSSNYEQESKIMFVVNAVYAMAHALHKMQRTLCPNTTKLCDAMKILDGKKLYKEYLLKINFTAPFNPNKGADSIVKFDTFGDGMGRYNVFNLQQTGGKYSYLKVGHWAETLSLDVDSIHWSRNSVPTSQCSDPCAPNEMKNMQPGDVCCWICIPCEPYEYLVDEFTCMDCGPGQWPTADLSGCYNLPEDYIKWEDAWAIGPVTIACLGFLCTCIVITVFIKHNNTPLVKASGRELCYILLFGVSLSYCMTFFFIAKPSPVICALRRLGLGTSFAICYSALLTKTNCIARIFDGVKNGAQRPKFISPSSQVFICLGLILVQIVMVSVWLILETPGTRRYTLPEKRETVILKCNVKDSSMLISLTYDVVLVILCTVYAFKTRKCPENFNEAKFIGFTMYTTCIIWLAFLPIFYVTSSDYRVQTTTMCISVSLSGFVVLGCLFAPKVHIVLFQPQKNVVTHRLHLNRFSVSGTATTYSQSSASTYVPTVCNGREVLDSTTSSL

SMILES: O=S(=O)(O)c1cc(O)c(N=Nc2ccc(O)cc2O)c2ccccc12
- AC50 [1]: 7.35 µM (active)
- AC50 (HeLa): 32.4 µM (active)
- AC50 (ORF 73): 22.2 µM (active)
- IC50 (Nonstructural protein 1): 4.32 µM (active)
- AC50 (Caspase-6): 2.16 µM (active)
- IC50 [2]: 28.8 µM (active)
- IC50 [3]: 20.5 µM (inactive)
- CC50 [4]: 100 µM (active)

SMILES: O=C(c1ccc(C#Cc2ccc3c(c2)OCO3)cc1)N1CCCC(CO)C1 (stereo unspecified)
- IC50 [5]: 7.26 µM (active)

SMILES: Cc1ccc(/C=C(\CC(=O)O)c2nc3ccccc3s2)cc1[N+](=O)[O-]
- AC50 [6]: 14.3 µM (active)

SMILES: CCCCNc1cc(C)nc(NCc2ccccc2)n1
- EC50 [7]: 3.96 µM (active)
- EC50 [8]: 4.04 µM (active)
- AC50 [9]: 10.6 µM (active)
- AC50 [10]: 13.8 µM (active)
- AC50 (INS1): 2.49 µM (active)
- AC50 [11]: 0.719 µM (active)
- AC50 [12]: 7.51 µM (active)
- IC50 [13]: > 20 µM (inactive)
- AC50 [14]: 1.19 µM (active)
- AC50 [15]: 3.36 µM (active)
- AC50 [16]: 31.1 µM (active)
